According to patent publication US20140005163A1 (NOVARTIS AG, priority 2010, published 2014):
Converted amounts (≈) assume the structure as drawn.

What was measured:
Solubility at pH 6.8 = format: physicochemical; settings: pH 6.8, aqueous buffer, thermodynamic from solid; read-out: solubility
Outline: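 Solubility was measured at pH 6.8 following the cited Zhou et al. (2007) procedure.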

PI3K alpha = target: T1, PI3K alpha (Homo sapiens, UniProt P42336); assay: PI3K alpha kinase assay (Kinase-Glo luminescence); format: biochemical
T1 construct: p85(iSH2) fusion partner (see partner chain) (N); His tag (C); made in house; host or cells: baculovirus; Tn5 (Trichoplusia ni) or TiniPro insect cells
T1 sequence (P42336 with tags, fused parts or gaps limits assumed): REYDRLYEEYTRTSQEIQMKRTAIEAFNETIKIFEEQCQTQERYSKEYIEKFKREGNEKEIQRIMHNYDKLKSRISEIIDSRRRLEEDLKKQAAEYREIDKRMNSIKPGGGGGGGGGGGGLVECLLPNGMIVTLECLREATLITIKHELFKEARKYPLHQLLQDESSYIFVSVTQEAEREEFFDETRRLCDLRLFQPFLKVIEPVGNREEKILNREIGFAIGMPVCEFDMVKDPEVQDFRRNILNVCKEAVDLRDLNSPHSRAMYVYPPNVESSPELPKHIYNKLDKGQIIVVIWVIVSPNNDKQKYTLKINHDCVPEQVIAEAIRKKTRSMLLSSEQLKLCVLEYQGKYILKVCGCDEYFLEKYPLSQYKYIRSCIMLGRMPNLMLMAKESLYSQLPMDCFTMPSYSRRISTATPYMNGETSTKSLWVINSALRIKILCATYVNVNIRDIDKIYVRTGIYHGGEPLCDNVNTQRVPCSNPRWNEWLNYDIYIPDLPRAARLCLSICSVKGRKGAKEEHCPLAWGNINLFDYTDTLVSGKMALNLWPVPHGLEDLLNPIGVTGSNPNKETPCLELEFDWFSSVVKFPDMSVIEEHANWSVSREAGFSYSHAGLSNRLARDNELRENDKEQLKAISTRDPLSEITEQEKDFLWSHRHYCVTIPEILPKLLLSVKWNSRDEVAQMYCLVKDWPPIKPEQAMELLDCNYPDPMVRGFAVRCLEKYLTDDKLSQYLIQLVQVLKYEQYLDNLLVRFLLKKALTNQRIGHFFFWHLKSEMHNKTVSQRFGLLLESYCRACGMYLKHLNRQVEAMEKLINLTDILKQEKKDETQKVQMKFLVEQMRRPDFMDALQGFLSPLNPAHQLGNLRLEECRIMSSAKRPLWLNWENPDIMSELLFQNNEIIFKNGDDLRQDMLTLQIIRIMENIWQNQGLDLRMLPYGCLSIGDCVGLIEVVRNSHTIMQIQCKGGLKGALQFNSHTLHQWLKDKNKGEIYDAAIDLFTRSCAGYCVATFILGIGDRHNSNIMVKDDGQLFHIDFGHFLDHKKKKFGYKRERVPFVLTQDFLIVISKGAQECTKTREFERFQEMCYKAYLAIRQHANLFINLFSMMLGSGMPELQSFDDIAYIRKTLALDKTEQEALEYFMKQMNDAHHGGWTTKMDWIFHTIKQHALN
Outline: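 IC50 is taken from a four-parameter logistic fit of 8-point dilutions, with Kinase-Glo luminescence reporting residual ATP. Reactions ran 60 min at room temperature in TRIS pH 7.5 buffer with MgCl2, NaCl, CHAPS and DTT. Final levels were 10 nM enzyme, 1 μM ATP and 10 μg/mL PI.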

mTOR = target: T2, mTOR (Homo sapiens, UniProt P42345); assay: Biochemical assay for m-TOR by TR-FRET; settings: 8 μM ATP, 400 nM GFP-4EBP1, 0.5 nM mTOR
T2 construct: purchased Invitrogen Corporation (Carlsbad/CA, USA) PV4753
T2 sequence (P42345 1360-2549 limits assumed): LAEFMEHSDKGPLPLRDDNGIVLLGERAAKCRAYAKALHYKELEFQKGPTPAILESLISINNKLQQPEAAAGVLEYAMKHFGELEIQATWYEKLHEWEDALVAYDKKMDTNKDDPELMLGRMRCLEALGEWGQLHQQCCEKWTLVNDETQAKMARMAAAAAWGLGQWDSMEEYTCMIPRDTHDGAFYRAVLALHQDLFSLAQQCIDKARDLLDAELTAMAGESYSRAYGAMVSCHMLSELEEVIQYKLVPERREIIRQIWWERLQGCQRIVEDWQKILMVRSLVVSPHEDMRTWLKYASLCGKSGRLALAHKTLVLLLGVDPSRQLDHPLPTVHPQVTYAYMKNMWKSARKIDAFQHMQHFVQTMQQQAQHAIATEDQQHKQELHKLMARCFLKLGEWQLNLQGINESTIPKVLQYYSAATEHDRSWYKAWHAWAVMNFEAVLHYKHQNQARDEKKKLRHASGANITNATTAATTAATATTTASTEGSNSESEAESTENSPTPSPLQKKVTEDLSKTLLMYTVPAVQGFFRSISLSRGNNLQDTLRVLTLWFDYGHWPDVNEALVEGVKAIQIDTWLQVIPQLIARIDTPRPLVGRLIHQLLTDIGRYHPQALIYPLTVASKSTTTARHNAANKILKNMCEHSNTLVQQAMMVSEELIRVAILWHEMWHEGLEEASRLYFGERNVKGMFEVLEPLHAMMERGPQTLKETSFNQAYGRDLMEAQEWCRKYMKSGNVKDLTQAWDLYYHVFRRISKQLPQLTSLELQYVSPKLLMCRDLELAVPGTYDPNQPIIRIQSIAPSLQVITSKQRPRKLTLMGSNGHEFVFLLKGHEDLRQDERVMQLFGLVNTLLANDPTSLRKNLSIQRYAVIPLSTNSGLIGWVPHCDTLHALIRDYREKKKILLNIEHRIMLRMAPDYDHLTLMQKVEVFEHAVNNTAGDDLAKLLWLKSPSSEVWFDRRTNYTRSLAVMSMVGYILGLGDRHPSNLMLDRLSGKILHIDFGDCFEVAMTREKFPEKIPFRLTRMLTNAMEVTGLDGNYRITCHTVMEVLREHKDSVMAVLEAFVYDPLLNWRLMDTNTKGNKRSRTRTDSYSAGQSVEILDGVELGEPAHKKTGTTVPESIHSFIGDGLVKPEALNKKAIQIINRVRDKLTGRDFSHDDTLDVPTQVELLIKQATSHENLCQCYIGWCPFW
Outline: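 mTOR (0.5 nM) was incubated at rt with ATP (8 μM final) and GFP-4EBP1 (400 nM final) in 50 mM HEPES pH 7.5, 10 mM MnCl2, 50 mM NaCl, 1 mM EGTA, 1 mM DTT. EDTA stop with Tb3+-anti-p4EBP1 [pThr46] antibody (0.5 nM); TR-FRET read 15 min later.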

SMILES | solubility (Solubility at pH 6.8) [mg/mL] | IC50 (PI3K alpha) [µM] | IC50 (mTOR) [µM]
COc1ccc(-c2ccc3ncc4c(c3c2)n(-c2ccnn2C)c(=O)n4C)cn1 [Example 2.2, 8-(6-Methoxy-pyridin-3-yl)-3-methyl-1-(2-methyl-2H-pyrazol-3-yl)-1,3-dihydro-imidazo[4,5-c]quinolin-2-one] | 0.004 (≈ 10.4 µM) | 0.062 | 0.347
Cc1ncc(-c2ccc3ncc4c(c3c2)n(-c2cn(C)nc2C)c(=O)n4C)cc1N(C)S(C)(=O)=O [Example 75, N-{5-[1-(1,3-Dimethyl-1H-pyrazol-4-yl)-3-methyl-2-oxo-2,3-dihydro-1H-imidazo[4,5-c]quinolin-8-yl]-2-methyl-pyridin-3-yl}-N-methyl-methanesulfonamide] | 0.035 (≈ 71.2 µM) | 0.014 | 0.26
CCNc1cncc(-c2ccc3ncc4c(c3c2)n(-c2cn(C)nc2C)c(=O)n4C)c1 [Example 122, 1-(1,3-Dimethyl-1H-pyrazol-4-yl)-8-(5-ethylamino-pyridin-3-yl)-3-methyl-1,3-dihydro-imidazo[4,5-c]quinolin-2-one] | 0.005 (≈ 12.1 µM) | 0.014 | 0.005
Cc1nn(C)cc1-n1c(=O)n(C)c2cnc3ccc(-c4cnc(Cl)c(N)c4)cc3c21 [Example 152.2, 8-(5-Amino-6-chloro-pyridin-3-yl)-1-(1,3-dimethyl-1H-pyrazol-4-yl)-3-methyl-1,3-dihydro-imidazo[4,5-c]quinolin-2-one] | 0.004 (≈ 9.53 µM) | 0.017 | 0.005
CCNc1cc(-c2ccc3ncc4c(c3c2)n(-c2cn(C)nc2C)c(=O)n4C)cnc1COC [Example 156, 1-(1,3-Dimethyl-1H-pyrazol-4-yl)-8-(5-ethylamino-6-methoxymethyl-pyridin-3-yl)-3-methyl-1,3-dihydro-imidazo[4,5-c]quinolin-2-one] | > 0.458 | 0.016 | 0.005
CNc1cc(-c2ccc3ncc4c(c3c2)n(-c2cn(C)nc2C)c(=O)n4C)cnc1CO [Example 158.1, 1-(1,3-Dimethyl-1H-pyrazol-4-yl)-8-(6-hydroxymethyl-5-methylamino-pyridin-3-yl)-3-methyl-1,3-dihydro-imidazo[4,5-c]quinolin-2-one] | > 0.429 | 0.009 | 0.004
CNc1cc(-c2ccc3ncc4c(c3c2)n(-c2cn(C)nc2Cl)c(=O)n4C)cnc1COC [Example 160.1, 1-(3-Chloro-1-methyl-1H-pyrazol-4-yl)-8-(6-methoxymethyl-5-methylamino-pyridin-3-yl)-3-methyl-1,3-dihydro-imidazo[4,5-c]quinolin-2-one] | 0.032 (≈ 69 µM) | 0.014 | < 0.003
CNc1ncc(-c2ccc3ncc4c(c3c2)n(-c2cn(C(C)C)nc2C)c(=O)n4C)cc1CO [Example 171, 8-(5-Hydroxymethyl-6-methylamino-pyridin-3-yl)-1-(1-isopropyl-3-methyl-1H-pyrazol-4-yl)-3-methyl-1,3-dihydro-imidazo[4,5-c]quinolin-2-one] | 0.005 (≈ 10.9 µM) | 0.032 | < 0.003
CCn1cc(-n2c(=O)n(C)c3cnc4ccc(-c5cncc(NC)c5)cc4c32)c(C)n1 [Example 180.1, 1-(1-Ethyl-3-methyl-1H-pyrazol-4-yl)-3-methyl-8-(5-methylamino-pyridin-3-yl)-1,3-dihydro-imidazo[4,5-c]quinolin-2-one] | 0.011 (≈ 26.6 µM) | 0.041 | 0.005
Cc1nn(C)cc1-n1c(=O)n(C)c2cnc3ccc(-c4cncc(OC(CF)CF)c4)cc3c21 [Example 182, 1-(1,3-Dimethyl-1H-pyrazol-4-yl)-8-[5-(2-fluoro-1-fluoromethyl-ethoxy)-pyridin-3-yl]-3-methyl-1,3-dihydro-imidazo[4,5-c]quinolin-2-one] | 0.056 (≈ 121 µM) | 0.009 | 0.006
COc1cc(-c2ccc3ncc4c(c3c2)n(-c2cn(C(C)C)nc2C)c(=O)n4C)cnc1CO [Example 194.1, 8-(6-Hydroxymethyl-5-methoxy-pyridin-3-yl)-1-(1-isopropyl-3-methyl-1H-pyrazol-4-yl)-3-methyl-1,3-dihydro-imidazo[4,5-c]quinolin-2-one] | 0.129 (≈ 281 µM) | 0.034 | 0.101
COc1cc(-c2ccc3ncc4c(c3c2)n(-c2cn(C)nc2Cl)c(=O)n4C)cnc1CO [Example 194.2, 1-(3-chloro-1-methyl-1H-pyrazol-4-yl)-8-(6-hydroxymethyl-5-methoxy-pyridin-3-yl)-3-methyl-1,3-dihydro-imidazo[4,5-c]quinolin-2-one] | 0.094 (≈ 208 µM) | 0.004 | 0.006
CCn1cc(-n2c(=O)n(C)c3cnc4ccc(-c5cncc(C6(C#N)CCC6)c5)cc4c32)c(C)n1 [Example 221.2, 1-{5-[1-(1-Ethyl-3-methyl-1H-pyrazol-4-yl)-3-methyl-2-oxo-2,3-dihydro-1H-imidazo[4,5-c]quinolin-8-yl]-pyridin-3-yl}-cyclobutanecarbonitrile] | – | 0.013 | 0.056
COCCNC(=O)c1cc(-c2ccc3ncc4c(c3c2)n(-c2cn(C)nc2C)c(=O)n4C)cnc1N [Example 226, 2-Amino-5-[1-(1,3-dimethyl-1H-pyrazol-4-yl)-3-methyl-2-oxo-2,3-dihydro-1H-imidazo[4,5-c]quinolin-8-yl]-N-(2-methoxy-ethyl)-nicotinamide] | – | 0.033 | 0.169

Further molecules by falling IC50 (PI3K alpha), results first:

solubility (Solubility at pH 6.8) [mg/mL] | IC50 (PI3K alpha) [µM] | IC50 (mTOR) [µM] | SMILES
0.004 (≈ 8.72 µM) | 0.161 | 0.143 | CCOc1ccc(-c2ccc3ncc4c(c3c2)n(-c2cn(CCOC)nc2C)c(=O)n4C)cn1 [Example 131, 8-(6-Ethoxy-pyridin-3-yl)-1-[1-(2-methoxy-ethyl)-3-methyl-1H-pyrazol-4-yl]-3-methyl-1,3-dihydro-imidazo[4,5-c]quinolin-2-one]
– | 0.043 | 0.022 | CC(=O)Nc1cc(-c2ccc3ncc4c(c3c2)n(-c2cn(C)nc2C)c(=O)n4C)cnc1Cl [Example 222, N-{2-Chloro-5-[1-(1,3-dimethyl-1H-pyrazol-4-yl)-3-methyl-2-oxo-2,3-dihydro-1H-imidazo[4,5-c]quinolin-8-yl]-pyridin-3-yl}-acetamide]
> 0.486 | 0.042 | 0.077 | CCNc1cc(-c2ccc3ncc4c(c3c2)n(-c2c(C)nn(CCOC)c2C)c(=O)n4C)cnc1C [Example 87.4, 8-(5-Ethylamino-6-methyl-pyridin-3-yl)-1-[1-(2-methoxy-ethyl)-3,5-dimethyl-1H-pyrazol-4-yl]-3-methyl-1,3-dihydro-imidazo[4,5-c]quinolin-2-one]
0.044 (≈ 91.9 µM) | 0.029 | 0.045 | CCOCc1ncc(-c2ccc3ncc4c(c3c2)n(-c2cn(C)nc2Cl)c(=O)n4C)cc1OC [Example 196.1, 1-(3-Chloro-1-methyl-1H-pyrazol-4-yl)-8-(6-ethoxymethyl-5-methoxy-pyridin-3-yl)-3-methyl-1,3-dihydro-imidazo[4,5-c]quinolin-2-one]
0.011 (≈ 21.1 µM) | 0.022 | 0.099 | Cc1nn(CC(=O)N(C)C)c(C)c1-n1c(=O)n(C)c2cnc3ccc(-c4ccc(-n5cccn5)cc4)cc3c21 [Example 51.4, 2-{3,5-Dimethyl-4-[3-methyl-2-oxo-8-(4-pyrazol-1-yl-phenyl)-2,3-dihydro-imidazo[4,5-c]quinolin-1-yl]pyrazol-1-yl}-N,N-dimethyl-acetamide]
– | 0.02 | 0.026 | Cc1nn(C)cc1-n1c(=O)n(C)c2cnc3ccc(-c4cnc(N)c(C(=O)NC(C)C)c4)cc3c21 [Example 225, 2-Amino-5-[1-(1,3-dimethyl-1H-pyrazol-4-yl)-3-methyl-2-oxo-2,3-dihydro-1H-imidazo[4,5-c]quinolin-8-yl]-N-isopropyl-nicotinamide]
0.136 (≈ 340 µM) | 0.017 | 0.013 | Cc1ncc(-c2ccc3ncc4c(c3c2)n(-c2cn(C)nc2C)c(=O)n4C)cc1N [Example 88.2, 8-(5-Amino-6-methyl-pyridin-3-yl)-1-(1,3-dimethyl-1H-pyrazol-4-yl)-3-methyl-1,3-dihydro-imidazo[4,5-c]quinolin-2-one]
0.169 (≈ 395 µM) | 0.014 | 0.003 | Cc1nn(C)cc1-n1c(=O)n(C)c2cnc3ccc(-c4cncc(NC(C)C)c4)cc3c21 [Example 177.1, 1-(1,3-Dimethyl-1H-pyrazol-4-yl)-8-(5-isopropylamino-pyridin-3-yl)-3-methyl-1,3-dihydro-imidazo[4,5-c]quinolin-2-one]
0.414 (≈ 999 µM) | 0.008 | 0.012 | Cc1nn(C)cc1-n1c(=O)n(C)c2cnc3ccc(-c4cncc(C(C)O)c4)cc3c21 (racemic) [Example 217, (rac)-1-(1,3-Dimethyl-1H-pyrazol-4-yl)-8-[5-(1-hydroxy-ethyl)-pyridin-3-yl]-3-methyl-1,3-dihydro-imidazo[4,5-c]quinolin-2-one]
– | 0.003 | < 0.003 | Cc1nn(C)cc1-n1c(=O)n(C)c2cnc3ccc(-c4cnc(Cl)c(NS(C)(=O)=O)c4)cc3c21 [Example 223, N-{2-Chloro-5-[1-(1,3-dimethyl-1H-pyrazol-4-yl)-3-methyl-2-oxo-2,3-dihydro-1H-imidazo[4,5-c]quinolin-8-yl]-pyridin-3-yl}-methanesulfonamide]
